# Target: T1, human α1G T-type channels (Homo sapiens, UniProt O43497)
# T1 construct: expressed in transfected cells; host or cells: HEK 293
# Assay: T-type calcium channel block, whole cell patch clamp in HEK cells (α1G)
# Format: cell-based
# Settings: HEK cells, patch clamp, mainly non-inactivated protocol; values above 10 μM shown as 10 μM, below 0.30 μM shown as 0.30 μM; read-out: T-type Calcium Channel Block α1G IC50
# Procedure: T-type calcium channel blocking activity was assayed in human embryonic kidney cells, HEK 293, stably transfected with the T-type calcium channel subunits. Briefly, cells were cultured in Dulbecco's modified eagle medium (DMEM) supplemented with 10% fetal bovine serum, 200 U/ml penicillin and 0.2 mg/ml streptomycin at 37° C. with 5% CO2. At 85% confluency cells were split with 0.25% trypsin/1 mM EDTA and plated at 10% confluency on glass coverslips. […] Fresh DMEM was supplied and the cells transferred to 28° C./5% CO2. Cells were incubated for 1 to 2 days prior to whole cell recording.
# Standard patch-clamp techniques were employed to identify blockers of T-type currents. Briefly, previously described HEK cell lines stably expressing human α1G, α1H and α1I T-type channels were used for all the recordings (passage #: 4-20, 37° C., 5% CO2). Whole cell patch clamp experiments were performed using an Axopatch 200B amplifier (Axon Instruments, Burlingame, Calif.) linked to a personal computer equipped with pCLAMP software. Data were analyzed using Clampfit (Axon Instruments) and SigmaPlot 4.0 (Jandel Scientific). To obtain T-type currents, plastic dishes containing semi-confluent cells were positioned on the stage of a ZEISS AXIOVERT S100 microscope after replacing the culture medium with external solution (see below). Whole-cell patches were obtained using pipettes (borosilicate glass with filament, O.D.: 1.5 mm, I.D.: 0.86 mm, 10 cm length), fabricated on a SUTTER P-97 puller with resistance values of ˜5 MΩ (see below for internal solution).
# In the non-inactivating protocol, the holding potential is set at −110 mV and with a pre-pulse at −100 mV for 1 second prior to the test pulse at −40 mV for 50 ms.
# Test compounds were dissolved in external solution, 0.1-0.01% DMSO. After ˜10 min rest, they were applied by gravity close to the cell using a WPI microfil tubing. The “non-inactivated” pre-pulse was used to examine the resting block of a compound. The “inactivated” protocol was employed to study voltage-dependent block. […] Values are shown in μM and values above 10 μM are simply represented as 10 μM.
# T1 sequence (O43497 whole entry): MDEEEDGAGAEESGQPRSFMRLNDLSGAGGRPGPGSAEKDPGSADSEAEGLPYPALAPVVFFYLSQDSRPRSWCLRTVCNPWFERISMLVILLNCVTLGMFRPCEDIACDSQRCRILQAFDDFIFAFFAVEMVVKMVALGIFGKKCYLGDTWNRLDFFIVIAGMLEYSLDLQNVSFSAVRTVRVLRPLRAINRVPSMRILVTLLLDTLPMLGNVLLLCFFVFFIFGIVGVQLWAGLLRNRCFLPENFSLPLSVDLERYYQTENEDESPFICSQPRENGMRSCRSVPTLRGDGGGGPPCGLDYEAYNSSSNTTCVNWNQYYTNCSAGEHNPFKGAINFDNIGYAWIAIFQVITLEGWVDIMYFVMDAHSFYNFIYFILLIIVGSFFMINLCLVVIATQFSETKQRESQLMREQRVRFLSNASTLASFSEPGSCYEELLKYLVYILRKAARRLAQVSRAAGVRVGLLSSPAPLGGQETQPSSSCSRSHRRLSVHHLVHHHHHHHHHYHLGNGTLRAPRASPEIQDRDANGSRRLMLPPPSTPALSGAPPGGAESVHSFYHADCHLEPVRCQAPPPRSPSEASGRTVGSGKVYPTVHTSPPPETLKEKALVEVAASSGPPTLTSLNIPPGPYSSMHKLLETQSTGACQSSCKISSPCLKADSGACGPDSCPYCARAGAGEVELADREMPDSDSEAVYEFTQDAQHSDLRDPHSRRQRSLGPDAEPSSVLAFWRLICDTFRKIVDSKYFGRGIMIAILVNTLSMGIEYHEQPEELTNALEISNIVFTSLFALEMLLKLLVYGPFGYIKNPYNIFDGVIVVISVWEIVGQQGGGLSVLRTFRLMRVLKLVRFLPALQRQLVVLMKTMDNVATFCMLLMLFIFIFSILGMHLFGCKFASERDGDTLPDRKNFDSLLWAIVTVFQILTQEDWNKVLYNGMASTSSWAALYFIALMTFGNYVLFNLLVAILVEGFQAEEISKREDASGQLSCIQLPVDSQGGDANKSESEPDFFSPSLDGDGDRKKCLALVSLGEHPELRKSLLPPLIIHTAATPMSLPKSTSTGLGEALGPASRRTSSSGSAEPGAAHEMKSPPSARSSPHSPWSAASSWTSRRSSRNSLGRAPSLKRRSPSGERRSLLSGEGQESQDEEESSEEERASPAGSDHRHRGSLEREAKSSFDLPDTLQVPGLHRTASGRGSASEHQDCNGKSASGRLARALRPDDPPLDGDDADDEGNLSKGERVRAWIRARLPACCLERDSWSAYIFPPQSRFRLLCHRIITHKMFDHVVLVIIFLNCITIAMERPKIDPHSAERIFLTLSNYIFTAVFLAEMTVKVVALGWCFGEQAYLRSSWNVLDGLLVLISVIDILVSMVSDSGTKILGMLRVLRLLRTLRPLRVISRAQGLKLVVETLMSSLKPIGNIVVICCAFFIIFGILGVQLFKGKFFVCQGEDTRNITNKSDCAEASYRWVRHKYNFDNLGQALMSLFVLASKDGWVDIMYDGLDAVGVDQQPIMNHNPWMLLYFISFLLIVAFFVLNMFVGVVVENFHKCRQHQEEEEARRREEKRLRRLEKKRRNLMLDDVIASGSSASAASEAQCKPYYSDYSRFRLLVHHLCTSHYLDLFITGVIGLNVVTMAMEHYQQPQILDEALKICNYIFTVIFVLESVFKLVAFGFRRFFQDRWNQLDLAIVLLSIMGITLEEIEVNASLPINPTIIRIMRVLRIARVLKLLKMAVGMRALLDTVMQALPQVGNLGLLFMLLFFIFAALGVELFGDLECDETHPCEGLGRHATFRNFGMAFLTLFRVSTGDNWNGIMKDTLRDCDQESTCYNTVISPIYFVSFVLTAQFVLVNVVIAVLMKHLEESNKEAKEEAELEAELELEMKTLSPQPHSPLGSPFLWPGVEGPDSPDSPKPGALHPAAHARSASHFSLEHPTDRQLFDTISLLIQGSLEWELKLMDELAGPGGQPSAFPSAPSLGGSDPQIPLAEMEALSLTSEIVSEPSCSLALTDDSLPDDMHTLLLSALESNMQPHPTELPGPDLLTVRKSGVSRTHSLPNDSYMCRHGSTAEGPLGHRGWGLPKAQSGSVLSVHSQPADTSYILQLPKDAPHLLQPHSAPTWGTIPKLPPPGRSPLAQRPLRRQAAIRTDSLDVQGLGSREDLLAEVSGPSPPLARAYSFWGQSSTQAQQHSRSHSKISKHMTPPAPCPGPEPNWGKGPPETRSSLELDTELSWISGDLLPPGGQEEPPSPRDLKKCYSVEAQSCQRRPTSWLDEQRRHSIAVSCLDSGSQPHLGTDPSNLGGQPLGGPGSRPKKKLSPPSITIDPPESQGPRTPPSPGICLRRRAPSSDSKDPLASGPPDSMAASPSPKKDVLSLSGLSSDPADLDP
row,IC50,Structure (SMILES)
1,2.91 µM,"COc1cc(F)cc(C(=O)NCC2CCN(CCNC(=O)C3CCCC3)CC2)c1 [Compound 396, N-((1-(2-(cyclopentanecarboxamido)ethyl)piperidin-4-yl)methyl)-3-fluoro-5-methoxybenzamide]"
2,< 0.3 µM,"O=C(NCC1CCN(CCNC(=O)C2CCCC2)CC1)c1cc(Br)cc(C(F)(F)F)c1 [Compound 407, 3-bromo-N-((1-(2-(cyclopentanecarboxamido)ethyl)piperidin-4-yl)methyl)-5-(trifluoromethyl)benzamide]"
3,3.36 µM,"O=C(Cc1cc(C(F)(F)F)cc(C(F)(F)F)c1)NCC1CCN(CCNC(=O)C2CCCC2)CC1 [Compound 408, N-(2-(4-((2-(3,5-bis(trifluoromethyl)phenyl)acetamido)methyl)piperidin-1-yl)ethyl)cyclopentanecarboxamide]"
4,0.91 µM,"O=C(NCC1CCN(CCNC(=O)C2CCCC2)CC1)c1cccc(OC(F)(F)F)c1 [Compound 401, N-((1-(2-(cyclopentanecarboxamido)ethyl)piperidin-4-yl)methyl)-3-(trifluoromethoxy)benzamide]"
5,3.53 µM,"O=C(NCC1CCN(CCNC(=O)C2CCCC2)CC1)c1cccc(C(F)(F)F)c1 [Compound 398, N-((1-(2-(cyclopentanecarboxamido)ethyl)piperidin-4-yl)methyl)-3-(trifluoromethyl)benzamide]"

# Further lines, the molecule ahead of its results:
row,Structure (SMILES),IC50
1,"Cc1cccc(C)c1NC(=O)CC1CCN(CCNS(=O)(=O)C(C)C)CC1 [Compound 433, N-(2,6-dimethylphenyl)-2-(1-(2-(1-methylethylsulfonamido)ethyl)piperidin-4-yl)acetamide]",> 10 µM
2,"O=C(NCC1CCN(C[C@@H]2CCCN2S(=O)(=O)C2CC2)CC1)c1cc(F)cc(C(F)(F)F)c1 [Compound 418, (S)-N-((1-((1-(cyclopropylsulfonyl)pyrrolidin-2-yl)methyl)piperidin-4-yl)methyl)-3-fluoro-5-(trifluoromethyl) benzamide]",2.17 µM
3,"N#CC1CCN(CC(=O)N2CCC(CNC(=O)c3cc(C(F)(F)F)cc(C(F)(F)F)c3)CC2)CC1 [Compound 259, N-((1-(2-(4-cyanopiperidin-1-yl)acetyl)piperidin-4-yl)methyl)-3,5-bis(trifluoromethyl)benzamide]",> 10 µM
4,CCS(=O)(=O)N1CCC[C@H]1CN1CCC(CNC(=O)c2cc(F)cc(C(F)(F)F)c2)CC1 [Compound 417],9.49 µM
5,"O=C(CC1CCN(C(=O)[C@H]2CCCN2)CC1)Nc1cc(C(F)(F)F)cc(C(F)(F)F)c1 [Compound 191, (R)-N-(3,5-bis(trifluoromethyl)phenyl)-2-(1-(pyrrolidine-2-carbonyl)piperidin-4-yl)acetamide]",> 10 µM
6,"CC(C)(CO)NC(=O)CN1CCC(CNC(=O)c2cc(C(F)(F)F)cc(C(F)(F)F)c2)CC1 [Compound 430, N-((1-(2-(1-hydroxy-2-methyl-propan-2-ylamino)-2-oxoethyl)piperidin-4-yl)methyl)-3,5-bis(trifluoromethyl)benzamide]",< 0.3 µM
7,"CC(C)(C)C(O)CN1CCC(CC(=O)NCc2cccc(OC(F)F)c2)CC1 (stereo not drawn) [Compound 175, N-(3-(difluoromethoxy)benzyl)-2-(1-(2-hydroxy-3,3-dimethylbutyl)piperidin-4-yl)acetamide]",> 10 µM
8,"CC(C)(C)C(O)C(=O)N1CCC(CNC(=O)c2cc(C(F)(F)F)cc(C(F)(F)F)c2)CC1 (stereo not drawn) [Compound 91, N-((1-(2-hydroxy-3,3-dimethylbutanoyl)piperidin-4-yl)methyl)-3,5-bis(trifluoromethyl)benzamide]",> 10 µM
9,"NC1(C(=O)N2CCC(CC(=O)Nc3cc(C(F)(F)F)cc(C(F)(F)F)c3)CC2)CCOCC1 [Compound 194, 2-(1-(4-aminotetrahydro-2H-pyran-4-carbonyl)piperidin-4-yl)-N-(3,5-bis(trifluoromethyl)phenyl)acetamide]",> 10 µM
10,"CC(C)(C)NC(=O)CN1CCC(CNC(=O)c2cc(Br)cc(OC(F)(F)F)c2)CC1 [Compound 429, 3-bromo-N-((1-(2-(tert-butylamino)-2-oxoethyl)piperidin-4-yl)methyl)-5-(trifluoromethoxy)benzamide]",< 0.3 µM

# Source: patent US8569344B2, “N-piperidinyl acetamide derivatives as calcium channel blockers” (Zalicus Pharmaceuticals Ltd., priority 2008, dated 2013)
